Measurements reported in US9522888B2, “Substituted bicyclic compounds” (BRISTOL-MYERS SQUIBB COMPANY, priority 2014, dated 2016).
Entries after “also recorded” stand apart in the source; their conditions may differ.

Legend:
[1] = test system: circulating lymphocytes; test: Blood Lymphocyte Reduction (BLR) assay in mouse; format: in vivo, BALB/c mice; conditions: oral; for lymphocyte reduction: mice, 24 hours post dose
Description: (§1) Blood Lymphocyte Reduction (BLR) Assay in Rodent:
(§2) Lewis rats or BALB/c mice were dosed orally with vehicle alone (polyethylene glycol 300, “PEG300”) or with test compounds. Compounds were dosed as a solution or suspension in the vehicle, adjusted to reflect the free amount of test article in the event that salt forms are utilized. Blood was drawn at 24 hr and blood lymphocyte counts were determined on an ADVIA 120 Hematology Analyzer (Siemens Healthcare Diagnostics). The results were measured as a reduction in the percentage of circulating lymphocytes as compared to the vehicle treated group at the time of measurement. The results represent the average results of all animals within each treatment group (n=2-4).

[2] = test system: circulating lymphocytes; test: Blood Lymphocyte Reduction (BLR) assay in rat; format: in vivo, Lewis rats; conditions: oral; for Percent reduction vs. control at 24 hr post-dose: blood lymphocytes; for lymphocyte reduction: rodent BLR assay, 24 hours post-dose, versus vehicle treated group
Description: as §1, §2

[3] = test system: adjuvant-induced arthritis, hind paw volume; test: Rat Adjuvant Induced Arthritis Assay (AA); format: in vivo, Male Lewis rats; conditions: Lewis rat; for paw swelling (mL) on day 20, Mean / paw swelling (mL) on day 22, Mean: once daily oral prophylactic; for inhibition of disease progression as measured by reduced paw swelling: prophylactic oral dosing regimen, result in words
Description: Rat Adjuvant Induced Arthritis Assay (AA) The rat adjuvant-induced arthritis model is an animal model for human rheumatoid arthritis. Male Lewis rats (150-175 g; Harlan, n=8 treatment group) were immunized at the base of the tail with 100 μl of 10 mg/ml freshly ground Mycobacterium butyricum (Difco Laboratories) in incomplete Freund's adjuvant (sigma). Animals were dosed once daily with the test article (as a solution or suspension in the vehicle) or vehicle alone (polyethylene glycol 300, “PEG300”) starting from the day of immunization. The volumes of their hind paws were measured in a water displacement plethysmometer (Ugo Basile, Italy). The baseline paw measurements were taken before onset of the disease (between day 7 to day 10). […] All procedures involving animals were reviewed and approved by the Institutional Animal Care Use Committee.

[4] = test system: guinea pig myelin basic protein induced EAE, clinical score; test: Rat Experimental Autoimmune Encephalomyelitis (EAE); format: in vivo, Female Lewis rats; conditions: Lewis rat; for Clinical Score on Day 11 (Mean): rat EAE, prophylactic oral dosing
Description: Rat Experimental Autoimmune Encephalomyelitis (EAE):
Female Lewis rats (150-200 g; Harlan) were immunized at the base of the tail with 0.1 ml of a complete Freund's adjuvant emulsion containing 0.5 mg/mL guinea pig myelin basic protein (Genemed Synthesis) and 2 mg/mL Mycobacterium butyricum (Difco). Beginning on Day 7, rats (n=11/group) were scored individually at least 3×/wk according to the following scheme:
Average clinical scores were calculated for each treatment group on each day of assessment.

[5] = test system: MOG35-55 induced EAE, clinical score; test: Mouse Experimental Autoimmune Encephalomyelitis Assay (EAE); format: in vivo, C57BL/6 mice; conditions: for inhibition of disease progression as measured by clinical scores / Clinical scores on day 21 (Mean): C57Bl/6 mice; for inhibition of disease progression as measured by clinical scores: prophylactic oral dosing regimen, result in words; for Clinical scores on day 21 (Mean): mouse EAE, prophylactic oral dosing; for Clinical scores on day 22, Mean: C57BL/6 mice, prophylactic oral
[6] = test system: kidney histology score; test: MRL/lpr lupus model: kidney histological analysis; format: in vivo, Male MRL/lpr mice; conditions: MRL/lpr mice; for Kidney Histology (nephritis) 23 weeks of age (Mean): total score, highest possible score=36
Description: (§3) MRL/lpr is a spontaneous model of lupus. Male MRL/lpr mice (Jackson Laboratory) at the age of 12-14 weeks were enrolled for the study (N=12). Mice were dosed p.o. daily with vehicle (18.4% (w/v) hydroxypropyl-b-cyclodextrin in 13.8 mM citric acid) or with Example 681 at 0.06, 0.3, 1.5 mg/kg. Mice were bled every other week for anti-dsDNA antibodies measured by ELISA using pooled serum from diseased MRL/lpr mice as a positive comparator in each assay. The data were expressed in arbitrary units as a ratio of the titer of the test serum to the titer of the pooled MRL/lpr immune serum.
At the end of study, one kidney was collected into 10% neutral buffered formalin and ZincTris fixatives. Fixed tissues were processed into paraffin blocks, sectioned at 3 μm, and stained with H&E or PASH. Kidney sections were graded using following criteria: Glomerular Damage: 1. Mesangial matrix thickening, cell proliferation, 2. Crescent formation, cellular deposits/casts in Bowman's space, 3. Cellular infiltration, mononuclear cells in glomerular tufts, 4. Fibrosis of Bowman's capsule. Tubular damage: 1. Infiltration of mononuclear cells, 2. Severity of tubular damage, 3. Protein casts. Tubulo-interstitial damage: 1. Fibrosis, 2. Infiltration of mononuclear cells. Each subcategory was assigned a score from 0-4, with the scores for glomerular indices representing the mean from 20 glomeruli per kidney. The total score for each mouse was the sum of the above 9 subcategories, with the highest possible score=36.

[7] = test system: anti-dsDNA antibodies; test: MRL/lpr lupus model: anti-dsDNA antibody titers (ELISA); format: in vivo, Male MRL/lpr mice; conditions: MRL/lpr mice; for Anti-dsDNA antibody titers (23 weeks of age) (Mean): ratio to pooled MRL/lpr immune serum titer
Description: as §3

[8] = p.o. daily 0.06, 0.3, 1.5 mg/kg, result in words

Which results are given for `CCCCCOc1ccc2cc([C@@H]3CC[C@](N)(CO)C3)ccc2c1` [Comparative Compound 703, reference compound]?
lymphocyte reduction ([1]; 1.0 mg/kg): 52%; Mouse Blood Lymphocyte Reduction Assay at 24 hr post-dose Percent reduction vs. control ([1]; 1.0 mg/kg): 52%

Which “Percent reduction vs. control at 24 hr post-dose” value ([2]; 0.1 mg/kg) does the source give for `COCCCCC[C@H]1CCc2cc([C@H]3CC[C@](N)(CO)C3)ccc2C1` [Example 672, ((1R,3S)-1-amino-3-((S)-6-(5-methoxypentyl)-5,6,7,8-tetrahydronaphthalen-2-yl)cyclopentyl)methanol] here?
The value was 47%.

What about the “paw swelling (mL) on day 20, Mean” value ([3]; 0.1 mg/kg) of the same compound?
Its value is 2.60 mL.

And the “paw swelling (mL) on day 20, Mean” value ([3]; 0.3 mg/kg)?
The value was 1.46 mL.

And the “paw swelling (mL) on day 20, Mean” value ([3]; 1.0 mg/kg)?
Its value is 0.17 mL.

What about the “inhibition of disease progression as measured by reduced paw swelling” value [3] of the same compound?
The value was “showed inhibition of disease progression”.

For `CCOCCC[C@H]1CCc2cc([C@H]3CC[C@](N)(CO)C3)ccc2C1` [Example 678, ((1R,3S)-1-amino-3-((R)-6-(3-ethoxypropyl)-5,6,7,8-tetrahydronaphthalen-2-yl)cyclopentyl)methanol], which “Percent reduction vs. control at 24 hr post-dose” value ([2]; 0.1 mg/kg) is on record?
The value was 16%.

What about the “Percent reduction vs. control at 24 hr post-dose” value ([2]; 0.3 mg/kg) of the same compound?
Its value is 53%.

And the lymphocyte reduction ([2]; 0.1 mg/kg)?
The lymphocyte reduction was 16%.

For `CCOCCC[C@@H]1CCc2cc([C@H]3CC[C@](N)(CO)C3)ccc2C1` [Example 679, ((1R,3S)-1-amino-3-((S)-6-(3-ethoxypropyl)-5,6,7,8-tetrahydronaphthalen-2-yl)cyclopentyl)methanol], which lymphocyte reduction ([1]; 0.5 mg/kg) is on record?
The lymphocyte reduction was 59%.

What about the “Mouse Blood Lymphocyte Reduction Assay at 24 hr post-dose Percent reduction vs. control” value ([1]; 0.5 mg/kg) of the same compound?
The value was 59%.

What about the “Percent reduction vs. control at 24 hr post-dose” value ([2]; 0.1 mg/kg) of the same compound?
Its value is 65%.

And the lymphocyte reduction ([2]; 0.1 mg/kg)?
Its lymphocyte reduction is 65%.

And the “inhibition of disease progression as measured by reduced clinical scores” value ([4]; prophylactic oral dosing regimen, result in words)?
Its value is “showed inhibition of disease progression”.

What about the “Clinical Score on Day 11 (Mean)” value ([4]; 0.3 mg/kg) of the same compound?
Its value is 0.36.

And the “Clinical Score on Day 11 (Mean)” value ([4]; 1.0 mg/kg)?
Its value is 0.09.

What about the “Clinical Score on Day 11 (Mean)” value ([4]; 3.0 mg/kg) of the same compound?
Its value is 0.02.

And the “paw swelling (mL) on day 22, Mean” value ([3]; 0.1 mg/kg)?
The value was 1.55 mL.

What about the “paw swelling (mL) on day 22, Mean” value ([3]; 0.5 mg/kg) of the same compound?
Its value is 0.36 mL.

And the “paw swelling (mL) on day 22, Mean” value ([3]; 2.50 mg/kg)?
The value was 0.00 mL.

What about the “inhibition of disease progression as measured by reduced paw swelling” value [3] of the same compound?
Its value is “showed inhibition of disease progression”.

What about the “inhibition of disease progression as measured by clinical scores” value [5] of the same compound?
Its value is “showed inhibition of disease progression; also recorded: inhibit disease progression”.

And the “Clinical scores on day 21 (Mean)” value ([5]; 0.6 mg/kg)?
Its value is 2.9.

And the “Clinical scores on day 21 (Mean)” value ([5]; 3 mg/kg)?
The value was 1.8.

And the “Clinical scores on day 21 (Mean)” value ([5]; 15 mg/kg)?
Its value is 1.3.

How did the lymphocyte reduction ([1]; 0.5 mg/kg) turn out when `COc1ccccc1CC[C@@H]1CCc2cc([C@H]3CC[C@](N)(CO)C3)ccc2C1` [Example 681, ((1R,3S)-1-amino-3-((S)-6-(2-methoxyphenethyl)-5,6,7,8-tetrahydronaphthalen-2-yl)cyclopentyl)methanol] was run?
The lymphocyte reduction was 85%.

What about the “Mouse Blood Lymphocyte Reduction Assay at 24 hr post-dose Percent reduction vs. control” value ([1]; 0.5 mg/kg) of the same compound?
The value was 85%.

And the “Kidney Histology (nephritis) 23 weeks of age (Mean)” value (shortened to “Kidney Histology … (Mean)”) ([6]; 0.06 mg/kg p.o. daily)?
Its value is 10.13.

And the “Kidney Histology … (Mean)” value ([6]; 0.3 mg/kg p.o. daily)?
The value was 10.00.

And the “Kidney Histology … (Mean)” value ([6]; 1.5 mg/kg p.o. daily)?
Its value is 12.63.

What about the “inhibition of disease progression as measured by kidney histology” value [6, 8] of the same compound?
Its value is “showed inhibition of disease progression”.

What about the “Percent reduction vs. control at 24 hr post-dose” value ([2]; 0.1 mg/kg) of the same compound?
Its value is 53%.

And the lymphocyte reduction ([2]; 0.1 mg/kg)?
Its lymphocyte reduction is 53%.

And the “Anti-dsDNA antibody titers (23 weeks of age) (Mean)” value (shortened to “Anti-dsDNA antibody titers”) ([7]; 0.06 mg/kg p.o. daily)?
The value was 1.861 arbitrary units.

And the “Anti-dsDNA antibody titers” value ([7]; 0.3 mg/kg p.o. daily)?
Its value is 0.978 arbitrary units.

What about the “Anti-dsDNA antibody titers” value ([7]; 1.5 mg/kg p.o. daily) of the same compound?
Its value is 1.023 arbitrary units.

And the “inhibition of disease progression as measured by anti-dsDNA titers” value [7, 8]?
Its value is “showed inhibition of disease progression”.

And the “Clinical scores on day 22, Mean” value ([5]; 0.1 mg/kg)?
Its value is 3.1.

What about the “Clinical scores on day 22, Mean” value ([5]; 0.5 mg/kg) of the same compound?
Its value is 1.1.

And the “Clinical scores on day 22, Mean” value ([5]; 2 mg/kg)?
The value was 0.8.

And the “inhibition of disease progression as measured by clinical scores” value [5]?
The value was “showed inhibition of disease progression; also recorded: inhibit disease progression”.

Which results are given for `COc1ccccc1CC[C@H]1CCc2cc([C@H]3CC[C@](N)(CO)C3)ccc2C1` [Example 682, ((1R,3S)-1-amino-3-((R)-6-(2-methoxyphenethyl)-5,6,7,8-tetrahydronaphthalen-2-yl)cyclopentyl)methanol]?
Percent reduction vs. control at 24 hr post-dose ([2]; 0.1 mg/kg): 17%; Percent reduction vs. control at 24 hr post-dose ([2]; 2.0 mg/kg): 83%; lymphocyte reduction ([2]; 0.1 mg/kg): 17%

With `COc1cccc(OC[C@@H]2CCc3cc([C@H]4CC[C@](N)(CO)C4)ccc3C2)c1` [Example 684, ((1R,3S)-1-amino-3-((R)-6-((3-methoxyphenoxy)methyl)-5,6,7,8-tetrahydronaphthalen-2-yl)cyclopentyl)methanol] as the compound, how does the lymphocyte reduction ([1]; 0.5 mg/kg) read?
The lymphocyte reduction was 79%.

What about the “Mouse Blood Lymphocyte Reduction Assay at 24 hr post-dose Percent reduction vs. control” value ([1]; 0.5 mg/kg) of the same compound?
The value was 79%.

What about the “Percent reduction vs. control at 24 hr post-dose” value ([2]; 0.05 mg/kg) of the same compound?
The value was 72%.

Which “Percent reduction vs. control at 24 hr post-dose” value ([2]; 0.1 mg/kg) does the source give for `COc1cccc(OC[C@H]2CCc3cc([C@H]4CC[C@](N)(CO)C4)ccc3C2)c1` [Example 685, ((1R,3S)-1-amino-3-((S)-6-((3-methoxyphenoxy)methyl)-5,6,7,8-tetrahydronaphthalen-2-yl)cyclopentyl)methanol] here?
Its value is 55%.
